Experimental findings from patent US5914339A, “Substituted 1,3-benzodioxoles” (American Home Products Corporation, priority 1997, dated 1999) are described below.

Read-outs that look alike come from different tables or passages of the source.

In one experiment the test system is plasma free fatty acids. The experiment can be described thus: Effects on plasma free fatty acid levels in rats. The settings on record: for ED50: Rattus norvegicus, 50 min, read-out: Rat Free Fatty Acid: ED50. The class given is in vivo, rat. Here is the method:
Rats respond to a single oral dose of β3 agonists by increasing plasma free fatty acids (FFA) in response to β3 receptor stimulation on the plasma membrane of the fat cell. 5-{2-[2-(3-Chloro-phenyl)-2-hydroxy-ethylamino]-propyl}-benzo[1,3]dioxole- 2,2-dicarboxylic acid diisopropyl ester (Standard 2) was used as a standard compound. All test compounds were dosed at 0.1 mg/kg and compared to the response by Standard 2.
1). Drugs were dissolved in DMSO at 10 mg/ml.
2). Twenty μl of the DMSO-drug solution was added to 10 mL methyl cellulose:tween-80 (0.5%:0.1%) for a final concentration of 20 μg/mL.
3). Methyl cellulose:tween-80 drug suspension was given via gavage (1 mL/200 g body weight; or 0.1 mg/kg) to rats and blood was collected 50 min later.
4). Plasma was analyzed for free fatty acids using a kit supplied by Biochemical Diagnostics Inc. (Brentwood, N.Y.).
5). Drug response was calculated from the formula below. [formula]
^b Elevation of plasma free fatty acids in rats, compounds tested at
0.1 mg/kg, results expressed as % of
5{2[2(3-Chloro-phenyl)-2-hydroxy-ethylaminopropylbenzo[1,3dioxole-2,2-dic
rboxylic acid diisopropyl ester response (78% increase) at 0.1 mg/kg.
ED50 (mg/kg) values determined for selected compounds.

The target of experiment [1] is human β2 adrenergic receptor (Homo sapiens, UniProt P07550). Put plainly: cell-based. The settings on record: for activation at 0.01 µM: 10 min, read-out: β2: % of isoproterenol activity (increase in cAMP). An outline of the steps: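 CHO cells transfected with human β1 or β2 adrenergic receptors were grown to confluence and exposed to compound at 10 nM for 10 min at 37° C. Cellular cAMP was measured by scintillation proximity assay. Activity is expressed as % of the response to 10 μM isoproterenol; EC50 (μM) was determined for selected compounds.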

The target in experiment [2] is human β1 adrenergic receptor (Homo sapiens, UniProt P08588). The experiment can be described thus: Human β1 adrenergic receptor agonist activity, cAMP increase in transfected CHO cells. The experiment is classed as cell-based. Here is the method: The activity of the test compounds on human β-adrenergic receptors was determined with Chinese hamster ovary (CHO) cells transfected with human β2, or β1 adrenergic receptors. Agonist activity is indicated by increased cAMP levels in the CHO cells. Selectivity of the test compounds for the β3 receptor was assessed by comparison with results in β2 and β1 adrenergic receptor transfected cells.
1). Chinese hamster ovary (CHO) cells transfected with human β2, or β1 adrenergic receptors were used in the assay.
2). Cells were grown to confluent conditions in 24 well plates.
3). Drugs were dissolved in DMSO at a concentration of 10 μM.
4). Cells were incubated with drug at 10 nM concentration for 10 min at 37° C.
5). Cell cAMP concentrations were assayed using a scintillation proximity assay kit from Amersham Corp., Chicago, Ill.
6). Activities for the test compounds are expressed as a percentage of the isoproterenol response.
Production of the CHO cells transfected with human β2, or β1 adrenergic receptors, and compound test procedures utilizing the CHO cells, are described by Emorine et al. in their article "Molecular Characterization of the Human Beta3 -Adrenergic Receptor", Science 1989, 245(8), 1118-1121 and by Muzzin et al. in the article "An Adipose Tissue-Specific Beta3 -Adrenergic Receptor", J. Biol. Chem.1991, 266, 24053-24058.
^a Human β receptors expressed in Chinese hamster ovary cells,
compounds tested at 10 nM, results expressed as % of isoproterenol
activity (increase in cAMP) at 10 μM. EC50 (μM) values
determined for selected compounds.

The subject of another experiment is plasma glucose. Put plainly: Effects on hyperglycemia in db/db mice, plasma glucose. The experiment is classed as in vivo, mouse (male, db/db (C57BL/KsJ)). Conditions: Mus musculus, po, 96 h; p.o., 4 days, mean of 2 and 4 h values on Day 4; footnote c gives mg/kg/day; read-out: db/db Mice Plasma Glucose: ED50 for lowering of plasma glucose.
[3] abbreviates: elevation of plasma free fatty acids, oral gavage, selected compounds.
The mark [4] stands for this setting: cAMP in CHO cells, selected compounds, read-out: β2: EC50.
Setting [5] is: compounds tested at 10 nM, isoproterenol at 10 μM, CHO cells, 10 min at 37° C.
Setting [6] is: cAMP in CHO cells, selected compounds, read-out: β1: EC50.

Chain of human β1 adrenergic receptor (P08588 whole entry): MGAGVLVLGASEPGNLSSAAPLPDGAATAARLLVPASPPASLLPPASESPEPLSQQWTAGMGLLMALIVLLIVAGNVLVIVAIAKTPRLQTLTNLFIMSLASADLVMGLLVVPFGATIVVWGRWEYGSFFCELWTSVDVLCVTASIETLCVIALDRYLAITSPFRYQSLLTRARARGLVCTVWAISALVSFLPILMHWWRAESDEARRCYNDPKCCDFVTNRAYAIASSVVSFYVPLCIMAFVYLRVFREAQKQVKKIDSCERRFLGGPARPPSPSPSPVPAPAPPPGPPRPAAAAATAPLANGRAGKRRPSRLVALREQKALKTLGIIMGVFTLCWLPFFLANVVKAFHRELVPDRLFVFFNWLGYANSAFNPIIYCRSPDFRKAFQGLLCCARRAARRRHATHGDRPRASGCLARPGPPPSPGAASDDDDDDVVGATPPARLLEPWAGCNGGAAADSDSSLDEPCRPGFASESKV

Consider `CC(Cc1ccc2c(c1)OC(C(=O)OCC1CC1)(C(=O)OCC1CC1)O2)NCC(O)c1cccc(Cl)c1` (stereo not shown) [Example 38, 5-{2-[2-(3-Chloro-phenyl)-2-hydroxy-ethylamino]-propyl}-benzo[1,3]dioxole-2,2-dicarboxylic acid bis-cyclopropylmethyl ester], for which the ED50 with plasma free fatty acids (setting [3]) stood at 0.086 mg/kg. Moreover, in experiment [1] (setting [4]), the EC50 is 274 nM.
In the case of `CC(Cc1ccc2c(c1)OC(C(=O)OC(C)C)(C(=O)OC(C)C)O2)NCC(O)c1cccc(Cl)c1` (stereo not shown) [5-{2-[2-(3-Chloro-phenyl)-2-hydroxy-ethylamino]-propyl}-benzo[1,3]dioxole-2,2-dicarboxylic acid diisopropyl ester, reference compound], the “increase of plasma free fatty acids” value in the experiment on plasma free fatty acids (0.1 mg/kg, rats) turned out to be 78%.
For the molecule “Carbonic acid 3-chloro-benzyl ester 2-(3-chloro-benzyloxycarbonyloxy)-4-{2-[2-(3-chloro-phenyl)-2-hydroxy-ethylamino]-propyl}-phenyl ester [Example 15]”, the “Rat Free Fatty Acid: elevation of plasma free fatty acids, % of diisopropyl ester (Standard 2) response” value in the experiment on plasma free fatty acids (0.1 mg/kg, gavage, blood collected 50 min later) stood at 46%. The “β2: % of isoproterenol activity (increase in cAMP)” value in experiment [1] (setting [5]) is listed as 18%.
Regarding `CC(C)CCOC(=O)C1(C(=O)O)Oc2ccc(C[C@@H](C)NC[C@H](O)c3cccc(Cl)c3)cc2O1` (stereo partly drawn) [Example 76, 5-{(2R)-2-[(2R)-2-(3-Chloro-phenyl)-2-hydroxy-ethylamino]-propyl}-benzo[1,3]dioxole-2,2-dicarboxylic acid (3-methylbutyl)ester], the EC50 in experiment [1] stood at 74 nM; in experiment [2], 980 nM.
For `C[C@H](Cc1ccc2c(c1)OC(C(=O)O)(C(=O)OCC(C)(C)C)O2)NC[C@H](O)c1cccc(Cl)c1` (stereo partly drawn) [Example 80, 5-{(2R)-2-[(2R)-2-(3-Chloro-phenyl)-2-hydroxy-ethylamino]-propyl}-benzo[1,3]dioxole-2,2-dicarboxylic acid (2,2-dimethyl-propyl)ester], in that order: 55 nM and 2400 nM.
With `CC(Cc1ccc2c(c1)OC(C(=O)OCCc1ccsc1)(C(=O)OCCc1ccsc1)O2)NCC(O)c1cccc(Cl)c1` (stereo not shown) [Example 71, 5-{2-[2-(3-Chloro-phenyl)-2-hydroxy-ethylamino]-propyl}-benzo[1,3]dioxole-2,2-dicarboxylic acid bis 2-(3-Thienyl)ethyl-ester], the ED50 in the experiment on plasma free fatty acids (setting [3]) came to 0.076 mg/kg. Besides, the activation at 0.01 µM in experiment [1] (setting [5]) stood at 14%.
On to `CC(Cc1ccc2c(c1)OC(C(=O)OCCc1ccccc1)(C(=O)OCCc1ccccc1)O2)NCC(O)c1cccc(Cl)c1.Cl` (stereo not shown) [Example 2, 5-{2-[2-(3-Chloro-phenyl)-2-hydroxy-ethylamino]-propyl}-benzo[1,3]dioxole-2,2-dicarboxylic acid diphenethyl ester hydrochloride salt], for which the ED50 is 0.071 mg/kg with plasma free fatty acids (setting [3]) and 0.128 mg/kg in the experiment with plasma glucose. The EC50 in experiment [1] (setting [4]) was determined as 22 nM.
Consider `CC(Cc1ccc2c(c1)OC(C(=O)OCCOC(C)C)(C(=O)OCCOC(C)C)O2)NCC(O)c1cccc(Cl)c1` (stereo not shown) [Example 21, 5-{2-[2-(3-Chloro-phenyl)-2-hydroxy-ethylamino]-propyl}-benzo[1,3]dioxole-2,2-dicarboxylic acid bis-(2-isopropoxy-ethyl) ester], for which, in the experiment on plasma free fatty acids (setting [3]), the ED50 was found to be 0.086 mg/kg. In addition, in experiment [1] (setting [5]), the activation at 0.01 µM was 2%.
As to `CC(Cc1ccc2c(c1)OC(C(=O)OC(C)c1ccccc1)(C(=O)OC(C)c1ccccc1)O2)NCC(O)c1cccc(Cl)c1` (stereo not shown) [Example 16, 5-{2-[2-(3-Chloro-phenyl)-2-hydroxy-ethylamino]-propyl}-benzo[1,3]dioxole-2,2-dicarboxylic acid bis-(1-phenyl-ethyl) ester], the ED50 with plasma free fatty acids (setting [3]) was 0.128 mg/kg.
Consider `CC(Cc1ccc2c(c1)OC(C(=O)OCC[Si](C)(C)C)(C(=O)OCC[Si](C)(C)C)O2)NCC(O)c1cccc(Cl)c1` (stereo not shown) [Example 31, 5-{2-[2-(3-Chloro-phenyl)-2-hydroxy-ethylamino]-propyl}-benzo[1,3]dioxole-2,2-dicarboxylic acid bis-(2-trimethylsilanyl-ethyl) ester], for which, in the experiment with plasma free fatty acids (po), the ED50 was found to be 0.09 mg/kg. The activation at 0.01 µM in experiment [1] (CHO) worked out at 5%.
With `C[C@H](Cc1ccc2c(c1)OC(C(=O)O)(C(=O)OCCC(C)(C)C)O2)NC[C@H](O)c1cccc(Cl)c1` (stereo partly drawn) [Example 81, 5-{(2R)-2-[(2R)-2-(3-Chloro-phenyl)-2-hydroxy-ethylamino]-propyl}-benzo[1,3]dioxole-2,2-dicarboxylic acid (3,3-dimethylbutyl) ester], the values for the EC50 in experiment [1] (setting [4]) and in experiment [2] (setting [6]) were 59 nM and 380 nM, respectively.
In the case of `CC(Cc1ccc2c(c1)OC(C(=O)O)(C(=O)OCC1CCC1)O2)NCC(O)c1cccc(Cl)c1` (stereo not shown) [Example 70, 5-{2-[2-(3-Chloro-phenyl)-2-hydroxy-ethylamino]-propyl}-benzo[1,3]dioxole-2,2-dicarboxylic acid cyclobutylmethyl ester], the 50% effective concentration (EC50) in experiment [1] turned out to be 48 nM; in experiment [2], 3000 nM.
For `CC(Cc1ccc2c(c1)OC(C(=O)OCC1CCC1)(C(=O)OCC1CCC1)O2)NCC(O)c1cccc(Cl)c1` (stereo not shown) [Example 40, 5-{2-[2-(3-Chloro-phenyl)-2-hydroxy-ethylamino]-propyl}-benzo[1,3]dioxole-2,2-dicarboxylic acid bis-cyclobutylmethyl ester], the ED50 in the experiment with plasma free fatty acids (setting [3]) was 0.071 mg/kg. For the same molecule, the EC50 was 420 nM in experiment [1] (setting [4]) and 8400 nM in experiment [2] (setting [6]).
As for `CC(Cc1ccc2c(c1)OC(C(=O)OCOC(=O)C1CCCCC1)(C(=O)OCOC(=O)C1CCCCC1)O2)NCC(O)c1cccc(Cl)c1` (stereo not shown) [Example 50, 5-{2-[2-(3-Chloro-phenyl)-2-hydroxyethylamino]propyl}benzo[1,3] dioxole-2,2-dicarboxylic acid bis-cyclohexanecarbonyloxymethyl ester], in experiment [1] (setting [5]), the activation at 0.01 µM was found to be 0%.
Still for that read-out and setting: the figure for `C[C@H](Cc1ccc2c(c1)OC(C(=O)OCC=Cc1ccccc1)(C(=O)OCC=Cc1ccccc1)O2)NC[C@H](O)c1cccc(Cl)c1` (stereo partly drawn) [Example 99, 5-{(2R)-2-[(2R)-2-(3-Chloro-phenyl)-2-hydroxy-ethylamino]-propyl}-benzo[1,3]dioxole-2,2-dicarboxylic acid bis-(3-phenyl-allyl)ester] is 16%.
Regarding `CC(Cc1ccc2c(c1)OC(C(N)=O)(C(N)=O)O2)NCC(O)c1cccc(Cl)c1` (stereo not shown) [Example 60, 5-{2-[2-(3-Chloro-phenyl)-2-hydroxy-ethylamino]-propyl}benzo[1,3]dioxole-2,2-dicarboxylic acid bis-amide], the activation at 0.01 µM in experiment [1] (CHO) is 3%.
`CC(C)CCCOC(=O)C1(C(=O)OCCCC(C)C)Oc2ccc(CC(C)NCC(O)c3cccc(Cl)c3)cc2O1` (stereo not shown) [Example 35, 5-{2-[2-(3-Chloro-phenyl)-2-hydroxy-ethylamino]-propyl}-benzo[1,3]dioxole-2,2-dicarboxylic acid bis-(4-methyl-pentyl) ester]: the activation at 0.01 µM in experiment [1] (setting [5]) was 4%.
For the molecule `CC(C)COCCOC(=O)C1(C(=O)OCCOCC(C)C)Oc2ccc(CC(C)NCC(O)c3cccc(Cl)c3)cc2O1` (stereo not shown) [Example 8, 5-{2-[2-(3-Chloro-phenyl)-2-hydroxy-ethylamino]-propyl}-benzo[1,3]dioxole-2,2-dicarboxylic acid bis-(2-isobutoxy-ethyl) ester], the activation at 0.01 µM in experiment [1] (setting [5]) worked out at 1%.
